Results: article PMC8398081, “Antioxidant Activity, α-Glucosidase Inhibition and UHPLC–ESI–MS/MS Profile of Shmar (Arbutus pavarii Pamp)” (Plants, 2021)

Tests used:
[1] = Ferric reducing antioxidant power (FRAP) assay; conditions: 37 °C, 30 min, 593 nm; FeSO4 standard curve; mean ± SD, n=3
Method: The FRAP of extracts and fractions were examined according to Kadum et al. method with slight modifications. […] A volume of 10 μL of methanol extract or fractions was transferred into 96-well microplates, followed by addition of 200 μL FRAP reagent and incubation at 37 °C for 30 min. The absorbance was checked through microplate reader (SPECTRAmax PLUS) at 593 nm. The absorbances of ferrous sulfate solution (FeSO4·7H2O), with a range of concentrations between 0.1 and 1 mM were used for plotting a calibration curve. The ascorbic acid was used as positive control and FRAP was presented as mM Fe (II)/g extract for extracts and mM Fe (II)/g fraction for fractions.

[2] = DPPH free radical scavenging assay; conditions: 30 min in dark, 517 nm; mean ± SD, n=3
Method: The DPPH assay was conducted in accordance with Lee et al. method. Initially, 100 µL of DPPH (5.9 mg in 100 mL ethanol) was mixed with 50 µL of the extracts or fractions. The mixtures were then kept in dark for 30 min at room temperature. The absorbance was measured using microplate reader at 517 nm. Quercetin was used as a positive control in the assay. The scavenging activity was calculated using the equation Scavenging Activity (%) = [(Ac – As)/Ac] × 100%, where (Ac) is the absorbance of the blank reagent while (As) is the absorbance of the tested samples. The analysis was performed in triplicates and the results were described as IC50 value.

SMILES | FRAP [1] | DPPH IC50 [2]
O=C1O[C@H]([C@@H](O)CO)C(O)=C1O [Ascorbic acid] | 180.64 ± 0.01 mmol Fe (II)/g Extract | –
O=c1c(O)c(-c2ccc(O)c(O)c2)oc2cc(O)cc(O)c12 [Quercetin] | – | 8.6 ± 0.70 µg/mL
